Experimental data reported in patent US20180153995A1, “USE OF ANTIMICROBIAL POLYMERS FOR RE-SENSITIZATION OF MICROORGANISMS UPON EMERGENCE OF RESISTANCE TO ANTI-MICROBIAL AGENTS” (Technion Research & Development Foundation Limited, priority 2008, published 2018).

How the values were obtained:
E. coli 14384 = experiment: Antibiotic MIC by microdilution with or without sub-MIC polymer; assay type: cell-based, Escherichia coli; details: E. coli 14384; polymer at ⅓ of its MIC
Description: (§1) MICs were determined by microdilution susceptibility testing in 96-well plates (by Nunc) using inocula of 10^5 bacteria per ml. Cell populations were evaluated by optical density measurements at 620 nm and were calibrated against a set of standards. Hundred (100) μl of a bacterial suspension were added to 100 μl of culture medium (control) or to 100 μl of culture medium containing various polymer concentrations in 2-fold serial dilutions. Inhibition of proliferation was determined by optical density measurements at 620 nm after an incubation period of 24 hours at 37° C.
(§2) 100 μl of a bacterial suspension were added to 100 μl of culture medium (control) or to 100 μl of culture medium containing various antibiotic and C14(9-ene)KKNC12KNH2 (SEQ ID NO: 5) concentrations in 2-fold serial dilutions. Inhibition of proliferation was determined by optical density measurements at 620 nm after an incubation period of 24 hours at 37° C.

S. aureus 15819 = experiment: as above; assay type: cell-based, Staphylococcus aureus; details: S. aureus 15819
E. coli 16329 = assay type: cell-based, Escherichia coli; details: E. coli U-16329
Description: as §1, §2

[1] = tested on: E. coli K-12 resistant wild type; assay type: cell-based, Escherichia coli; details: E. coli AG100 (w.t.)
E. coli 16327 = experiment: microbe, parasite or virus in culture
S. aureus 43300 = experiment: Antibiotic MIC by microdilution with or without sub-MIC polymer; assay type: cell-based, Staphylococcus aureus
S. aureus 15877 = experiment: as above; assay type: cell-based, Staphylococcus aureus
S. maltophila 748 = experiment: as above; assay type: cell-based, Stenotrophomonas maltophila
[2] = +¼ MIC (1.6 μM) C12(5-ene)KKNC12KNH2
[3] = +¼ MIC (1.6 μM) C12K(KNC12K)3NH2
[4] = +½ MIC (3.12 μM) C12(5-ene)KKNC12KNH2
[5] = +⅓ MIC (2.1 μM) C12(5-ene)KKNC12KNH2
[6] = +⅓ MIC (2.1 μM) C12K(KNC12K)3NH2

`CC[C@H]1OC(=O)[C@H](C)[C@@H](O[C@H]2C[C@@](C)(OC)[C@@H](O)[C@H](C)O2)[C@H](C)[C@@H](O[C@@H]2O[C@H](C)C[C@H](N(C)C)[C@H]2O)[C@](C)(O)C[C@@H](C)C(=O)[C@H](C)[C@@H](O)[C@]1(C)O` [Erythromycin, erythromycin] was tested, and the “Antibiotic MIC in presence of C12K(NC8K)7NH2 (SEQ ID NO: 4), +⅓ MIC” value (E. coli 14384) was 16 to 32 µg/mL, the “Antibiotic MIC” value (S. aureus 15819; [2]) was 0.25 µg/mL and the “Antibiotic MIC” value (S. aureus 15819; [3]) was 0.5 µg/mL. For the same molecule, the “Antibiotic MIC” value (S. aureus 15819; +¼ MIC (1.6 μM) C12KKNC12KNH2) was 0.5 µg/mL, the “Antibiotic MIC” value (S. aureus 15819; [4]) was 0.25 µg/mL and the “Antibiotic MIC” value (S. aureus 15819; +½ MIC (3.12 μM) C12KKNC12KNH2) was 0.5 µg/mL. The “Antibiotic MIC” value (S. aureus 15819; [5]) was 0.25 µg/mL, the “Antibiotic MIC” value (S. aureus 15819; [6]) was 0.25 µg/mL and the “Antibiotic MIC” value (S. aureus 15819; +⅓ MIC (2.1 μM) C12KKNC12KNH2) was 0.5 µg/mL. The “Antibiotic MIC” value (S. aureus 15819; no polymer (None), Table 8) was 0.25 µg/mL, the “Antibiotic MIC” value (S. aureus 15819; no polymer (None), Table 11) was 0.5 µg/mL and the “Antibiotic MIC” value (S. aureus 15819; no polymer (None), Table 13) was 0.5 µg/mL. The “Antibiotic MIC” value (E. coli 16329; +½ MIC C12K(NC8K)5NH2) was 32 µg/mL, the “Antibiotic MIC in presence of C12K(NC8K)7NH2 (SEQ ID NO: 4), +½ MIC” value (“Antibiotic MIC … (SEQ ID NO: 4), +½ MIC” below) (E. coli 16329; polymer at ½ of its MIC) was 16 µg/mL and the “Antibiotic MIC … (SEQ ID NO: 4), +½ MIC” value ([1]; polymer at ½ of its MIC (Table 16)) was 8 to 16 µg/mL. For the same molecule, the “Antibiotic MIC in presence of the OAK, +½ MIC” value ([1]; the OAK at ½ of its MIC (Table 17)) was 16 µg/mL, the “MIC, ½ + MIC OAK” value (E. coli 16327; E. coli U16327, with C12K(KNC10K)3NH2 (SEQ ID NO: 10) at ½ of its MIC) was 4 to 8 µg/mL and the “MIC, ⅓ + MIC OAK” value (E. coli 16327; E. coli U16327, with C12K(KNC10K)3NH2 (SEQ ID NO: 10) at ⅓ of its MIC) was 8 µg/mL. The “Antibiotic MIC … (SEQ ID NO: 4), +½ MIC” value (E. coli 16327; E. coli U-16327, polymer at ½ of its MIC) was 32 µg/mL, the “Antibiotic MIC” value (S. aureus 43300; [2]) was 512 µg/mL and the “Antibiotic MIC” value (S. aureus 43300; +¼ MIC (1.6 μM) C12K(KNC12K)2NH2) was over 512 µg/mL. The “Antibiotic MIC” value (S. aureus 43300; +¼ MIC (1.6 μM) C12KKNC12KNH2) was over 512 µg/mL, the “Antibiotic MIC” value (S. aureus 43300; +¼ MIC (1.6 μM) C14(9-ene)KKNC12KNH2) was over 512 µg/mL and the “Antibiotic MIC” value (S. aureus 43300; +¼ MIC (1.6 μM) C16(9-ene)KKNC12KNH2) was 512 µg/mL. The “Antibiotic MIC” value (S. aureus 43300; +½ MIC (3.12 μM) C12K(KNC12K)2NH2) was over 512 µg/mL, the “Antibiotic MIC” value (S. aureus 43300; +½ MIC (3.12 μM) C12KKNC12KNH2) was over 512 µg/mL and the “Antibiotic MIC” value (S. aureus 43300; +½ MIC (3.12 μM) C14(9-ene)KKNC12KNH2) was over 512 µg/mL. The “Antibiotic MIC” value (S. aureus 43300; +½ MIC (3.12 μM) C16(9-ene)KKNC12KNH2) was 512 µg/mL, the “Antibiotic MIC” value (S. aureus 43300; [5]) was 512 µg/mL and the “Antibiotic MIC” value (S. aureus 43300; +⅓ MIC (2.1 μM) C12K(KNC12K)2NH2) was over 512 µg/mL. The “Antibiotic MIC” value (S. aureus 43300; +⅓ MIC (2.1 μM) C12KKNC12KNH2) was over 512 µg/mL, the “Antibiotic MIC” value (S. aureus 43300; +⅓ MIC (2.1 μM) C14(9-ene)KKNC12KNH2) was over 512 µg/mL and the “Antibiotic MIC” value (S. aureus 43300; +⅓ MIC (2.1 μM) C16(9-ene)KKNC12KNH2) was 512 µg/mL. The “Antibiotic MIC” value (S. aureus 43300; no polymer (None), Table 8) was 512 µg/mL, the “Antibiotic MIC” value (S. aureus 43300; no polymer (None), Table 9) was over 512 µg/mL and the “Antibiotic MIC” value (S. aureus 43300; no polymer (None), Table 10) was 512 µg/mL. The “Antibiotic MIC” value (S. aureus 43300; no polymer (None), Table 11) was over 512 µg/mL, the “Antibiotic MIC” value (S. aureus 43300; no polymer (None), Table 12) was over 512 µg/mL and the “Antibiotic MIC” value (S. aureus 15877; [2]) was over 512 µg/mL. The “Antibiotic MIC” value (S. aureus 15877; [4]) was over 512 µg/mL, the “Antibiotic MIC” value (S. aureus 15877; [5]) was over 512 µg/mL and the “Antibiotic MIC” value (S. aureus 15877; no polymer (None), Table 8) was over 512 µg/mL. For the same molecule, the “Antibiotic MIC” value (S. maltophila 748; [3]) was 512 µg/mL, the “Antibiotic MIC” value (S. maltophila 748; [6]) was 512 µg/mL and the “Antibiotic MIC” value (S. maltophila 748; no polymer (None), Table 13) was 512 µg/mL.
